Measurements reported in US9498467B2, “Treatment of chronic neutrophilic leukemia (CNL) and atypical chronic myeloid leukemia (aCML) by inhibitors of JAK1” (Incyte Corporation, priority 2014, dated 2016).

Columns and labels:
[1] = system: CNL carrying a JAK-activating CSF3R mutation; conditions: one patient with CNL carrying a JAK-activating CSF3R mutation; cited from earlier work
[2] = system: GCSF induced pSTAT3 in human neutrophils; assay: JAK human neutrophil assay (pSTAT3 ELISA); conditions: 0.25 h, read-out: IC50 (inhibition of pSTAT3)

Question: Which clinical improvement [1] does the source give for N#CCC(C1CCCC1)n1cc(-c2ncnc3[nH]ccc23)cn1 (stereo in doubt) [ruxolitinib, (3R)-3-cyclopentyl-3-[4-(7H-pyrrolo[2,3-d]pyrimidin-4-yl)-1H-pyrazol-1-yl]propanenitrile, reference compound] here?
Answer: The clinical improvement was “Marked clinical improvement”.

Question: And the IC50 [2]?
Answer: Its IC50 is < 100 nM.
